# According to patent US6476051B2, “Antipsychotic heterocycle compounds” (Bristol-Myers Squibb Company, priority 1999, dated 2002):
# Where two headings read alike, the source gives them in different places.
# Key:
# [1] = biological target: T1, human serotonin transporters (Homo sapiens, UniProt P31645); assay: Serotonin transporter binding assay ([3H]-citalopram binding, HEK-hSERT cell membranes)
# T1 construct: expressed in transfected cells; host or cells: HEK-293 (HEK-hSERT cells), membrane homogenates
# From the text: The compounds of Formula I bind potently to the human 5-HT transporter and inhibit the re-uptake of endogenous serotonin. Selective serotonin reuptake inhibitors (SSRIs) are effective for the treatment of mental depression and have been reported to be useful for treating chronic pain (see: R. W. Fuller, Pharmacologic Modification of Serotonergic Function: Drugs for the Study and Treatment of Psychiatric and Other Disorders,” J. Clin. Psychiatry, 47:4 (Suppl.) April 1986, pp. 4-8). Compounds of the present invention are also envisioned to be useful for treating psychosis, acute mania, mild anxiety states or depression with secondary psychotic episodes. The present compounds are also envisioned to be useful in treating obsessive-compulsive disorders, feeding disorders, anxiety disorders and panic disorders.
# HEK-293 cells that stably express human serotonin transporters (HEK-hSERT cells) were grown at 37° C. in 5% CO2 as a monolayer in medium consisting of EMEM supplemented with 10% fetal bovine serum and G418 sulfate (500 μg/ml). To prepare membranes for radioligand binding experiments, cells were rinsed twice with phosphate-buffered saline (138 mM NaCl, 4.1 mM KCl, 5.1 mM Na2PO4, 1.5 mM […], 11.1 mM glucose, pH 7.4). Cells were transferred from plates to polypropylene tubes (16×100 mm), centrifuged at 1,200×g for 5 min and were frozen at −80° C. until assay. Following centrifugation, pellets were resuspended by homogenization in buffer consisting of 50 mM Tris (pH 7.7 at 25° C.), 120 mM NaCl and 5 mM KCl and then centrifuged at 32,000×g for 10 min. Following centrifugation, supernatants were discarded and pellets were resuspended in buffer consisting of 50 mM Tris (pH 7.4 at 25° C.), 150 mM NaCl and 5 mM KCl. Membrane homogenates (200 μl/plate) were incubated with 1 nM [^3H]-citalopram (specific activity=85 Ci/mmol) and increasing concentrations of test compounds for 1 hour at 25° C. in a total volume of 250 μl. The assay buffer consisted of 50 mM Tris (pH 7.4 at 25° C.), 120 mM NaCl and 5 mM KCl (pH 7.4 with conc. HCl). Plates were incubated for 1 hour at 25° C., then filtered through 0.5% PEI treated Whatman GF/B filters using a Brandel cell harvester. Filters were washed three times with 3 ml of ice-cold tris wash buffer. Non-specific binding was defined with 10 μM fluoxetine. Amount of radioligand bound in the presence and absence of competitor was analyzed by plotting (−)log drug concentration versus the amount of radioligand specifically bound. The midpoint of the displacement curve (IC50, nM), signifies the potency. Ki values were calculated using the method of Cheng and Prusoff (1973).
# Substances which inhibit the re-uptake of serotonin are recognized to be effective antidepressants (Selective Serotonin Reuptake Inhibitors. Edited by J P Feighner and W F Boyer, Chichester, England. John Wiley & Sons, 1991, pp 89-108). Test data IC50 values lower than 250 nM are considered to reflect activity as an inhibitor of serotonin re-uptake.
# [2] = biological target: T2, recombinant human dopamine D2L receptors (Homo sapiens, UniProt P14416); assay: Dopamine binding protocol ([3H]-spiperone binding, HEK-D2L cell membranes)
# T2 construct: expressed in transfected cells; host or cells: HEK-293 (HEK-D2L cells), membrane homogenates
# Method: Like many clinically effective antipsychotic agents, the compounds of Formula I also are antagonists at the human D2L receptor as determined by [^3H]-spiperone binding studies using human D2L receptors stably expressed in HEK-293 cells.
# HEK-293 cells that stably express recombinant human dopamine D2L receptors (HEK-D2L cells) were grown at 37° C. in 5% CO2 as a monolayer in medium consisting of EMEM supplemented with 10% fetal bovine serum and G418 sulfate (500 μg/ml). To prepare membranes for radioligand binding experiments, cells were rinsed twice with phosphate-buffered saline (138 mM NaCl, 4.1 mM KCl, 5.1 mM Na2PO4, 1.5 mM […] 11.1 mM glucose, pH 7.4), and incubated for 5-10 min. at 4° C. in hypotonic lysis buffer consisting of 10 mM Tris (pH 7.4) and 5 mM EDTA. Cells were transferred from plates to polypropylene tubes (16×100 mm), homogenized and centrifuged at 32,000×g for 20 min. Following centrifugation, pellets were resuspended by homogenization in buffer consisting of 50 mM Tris (pH 7.7 at 25° C.) and 1 mM EDTA. Homogenates were stored at −80° C. until needed. On the day of an experiment, homogenates were thawed then centrifuged at 32,000×g for 20 min. Following centrifugation, supernatants were discarded and pellets were resuspended in assay buffer consisting of 50 mM Tris (pH 7.4 at 25° C.), 1 mM EDTA and 6 mM MgCl2. Membrane homogenates (˜5 μg) were incubated with 150 pM [^3H]-spiperone (Amersham Life Science) and increasing concentrations of test compounds for 1.5 hours at 22° C. in a total volume of 400 μl. Reactions were stopped by addition of ice-cold assay buffer and filtration over glass fiber filters (Whatman GFB, pre-soaked in 0.05% polyethylenimine) using a microtitre format Brandel cell harvester. Filters were washed with 3 ml of ice-cold assay buffer. Non-specific binding was defined with 2 μM (+)butaclamol. Ki values were calculated using the method of Cheng and Prusoff (1973). Protein concentrations were determined by the method of Bradford (1976) with BSA as a standard.
# Test data IC50 values lower than 250 nM are considered to reflect affinity for dopamine D2L receptors.
# [3] = [3H]-citalopram, HEK-hSERT membranes, read-out: inhibit the re-uptake of serotonin with Ki
# [4] = [3H]-spiperone, HEK-D2L membranes, read-out: dopamine D2L ligands with Ki
# T1 sequence (P31645 whole entry): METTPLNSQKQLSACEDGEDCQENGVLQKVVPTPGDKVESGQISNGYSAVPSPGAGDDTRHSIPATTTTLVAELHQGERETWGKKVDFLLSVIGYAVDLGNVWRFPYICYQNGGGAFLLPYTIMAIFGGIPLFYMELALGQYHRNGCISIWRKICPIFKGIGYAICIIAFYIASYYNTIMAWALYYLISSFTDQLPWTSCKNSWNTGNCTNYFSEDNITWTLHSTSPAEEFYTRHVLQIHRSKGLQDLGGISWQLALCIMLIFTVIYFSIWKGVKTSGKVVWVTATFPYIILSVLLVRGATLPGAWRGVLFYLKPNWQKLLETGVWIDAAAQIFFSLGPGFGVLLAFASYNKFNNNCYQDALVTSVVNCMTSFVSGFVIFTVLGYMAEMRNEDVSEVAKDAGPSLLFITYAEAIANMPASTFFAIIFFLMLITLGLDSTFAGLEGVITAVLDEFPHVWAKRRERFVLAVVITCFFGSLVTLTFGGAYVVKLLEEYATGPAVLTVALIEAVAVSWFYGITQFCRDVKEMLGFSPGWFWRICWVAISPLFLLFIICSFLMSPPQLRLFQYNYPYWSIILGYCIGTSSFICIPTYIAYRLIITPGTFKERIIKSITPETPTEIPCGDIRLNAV
# T2 sequence (P14416 whole entry): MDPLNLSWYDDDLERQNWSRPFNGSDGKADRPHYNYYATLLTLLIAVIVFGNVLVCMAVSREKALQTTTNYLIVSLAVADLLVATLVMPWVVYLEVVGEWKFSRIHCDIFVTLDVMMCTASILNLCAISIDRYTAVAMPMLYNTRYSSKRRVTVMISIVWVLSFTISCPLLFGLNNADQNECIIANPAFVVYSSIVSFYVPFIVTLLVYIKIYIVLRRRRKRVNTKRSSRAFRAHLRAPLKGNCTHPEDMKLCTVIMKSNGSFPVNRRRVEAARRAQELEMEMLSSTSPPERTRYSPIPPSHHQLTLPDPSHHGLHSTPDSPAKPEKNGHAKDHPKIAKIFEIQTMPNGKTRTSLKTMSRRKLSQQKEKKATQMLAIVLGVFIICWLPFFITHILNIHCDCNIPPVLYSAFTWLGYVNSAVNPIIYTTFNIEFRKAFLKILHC
"Ki [1, 3] [nM]","Ki [2, 4] [nM]",SMILES,Ki [1] [nM],Ki [2] [nM]
< 100,< 100,"N#Cc1ccc2[nH]cc(C3CCN(CCCOc4ccccc4)CC3)c2c1 [Example 4, 3-[1-(3-phenoxypropyl)-4-piperidinyl]-5-cyanoindole]",,
,,"COc1ccc2[nH]cc(C3=CCN(CCCCCOc4ccc5sc(C)nc5c4)CC3)c2c1 [Example 33, 5-{5-[4-(5-methoxyindol-3-yl)-1,2,5,6-tetrahydropyrid-1-yl]pentoxy}-2-methylbenzothiazole]",< 100,< 100
,,"Cc1nc2cc(OCCCCN3CC=C(c4c[nH]c5c(F)cccc45)CC3)ccc2s1 [Example 18, 5-{4-[4-(7-fluoroindol-3-yl)1,2,5,6-tetrahydropyrid-1-yl]butoxy}-2-methylbenzothiazole]",< 100,< 100
< 100,< 100,"COc1ccccc1OCCCN1CCC(c2c[nH]c3ccc(C#N)cc23)CC1 [Example 7, 3-{1-[3-(2-methoxyphenoxy)propyl]-4-piperidinyl}-5-cyanoindole]",,
,,"Cc1nc2cc(OCCCN3CC=C(c4c[nH]c5ccc(F)cc45)CC3)ccc2s1 [Example 34, 5-{3-[4-(5-fluoroindol-3-yl)-1,2,5,6-tetrahydropyrid-1-yl]propoxy}-2-methylbenzothiazole]",< 100,< 100
,,"Cc1nc2cc(OCCCCN3CC=C(c4c[nH]c5cccc(F)c45)CC3)ccc2s1 [Example 13, 5-{4-[4-(4-fluoroindol-3-yl)1,2,5,6-tetrahydropyrid-1-yl]butoxy}-2-methylbenzothiazole]",< 100,< 100
,,"Cc1nc2cc(OCCCCCN3CC=C(c4c[nH]c5c(Br)cccc45)CC3)ccc2s1 [Example 30, 5-{5-[4-(7-bromoindol-3-yl)-1,2,5,6-tetrahydropyrid-1-yl]pentoxy}-2-methylbenzothiazole]",< 100,< 100
< 100,< 100,"Cc1nc2cc(OCCCN3CCC(Cc4cc(F)ccc4Br)CC3)ccc2s1 [Example 44, 5-(3-{4-[(2-bromo-5-fluorophenyl)methyl]piperidinyl}propoxy)-2-methylbenzothiazole]",,
,,"Cc1nc2cc(OCCCCCN3CC=C(c4c[nH]c5ccc(F)cc45)CC3)ccc2s1 [Example 16, 5-{5-[4-(5-fluoroindol-3-yl)-1,2,5,6-tetrahydropyrid-1-yl]pentoxy}-2-methylbenzothiazole]",< 100,< 100
,,"COc1ccc2[nH]cc(C3=CCN(CCCOc4ccc5sc(C)nc5c4)CC3)c2c1 [Example 31, 5-{3-[4-(5-methoxyindol-3-yl)-1,2,5,6-tetrahydropyrid-1-yl]propoxy}-2-methylbenzothiazole]",< 100,< 100
< 100,< 100,"COc1ccc(OCCCN2CCC(c3c[nH]c4ccc(C#N)cc34)CC2)cc1 [Example 9, 3-{1-[3-(4-methoxyphenoxy)propyl]-4-piperidinyl}-5-cyanoindole]",,
,,"Cc1nc2cc(OCCCCCN3CC=C(c4c[nH]c5cc(Cl)ccc45)CC3)ccc2s1 [Example 24, 5-{5-[4-(6-chloroindol-3-yl)-1,2,5,6-tetrahydropyrid-1-yl]pentoxy}-2-methylbenzothiazole]",< 100,< 100
,,"Cc1nc2cc(OCCCCN3CC=C(c4c[nH]c5ccc(C#N)cc45)CC3)ccc2s1 [Example 38, 5-{4-[4-(5-cyanoindol-3-yl)-1,2,5,6-tetrahydropyrid-1-yl]butoxy}-2-methylbenzothiazole]",< 100,< 100
,,"Cc1nc2cc(OCCCN3CC=C(c4c[nH]c5cc(Cl)ccc45)CC3)ccc2s1 [Example 22, 5-{3-[4-(6-chloroindol-3-yl)-1,2,5,6-tetrahydropyrid-1-yl]propoxy}-2-methylbenzothiazole]",< 100,< 100
,,"Cc1nc2cc(OCCCN3CC=C(c4c[nH]c5cc(Br)ccc45)CC3)ccc2s1 [Example 25, 5-{3-[4-(6-bromoindol-3-yl)-1,2,5,6-tetrahydropyrid-1-yl]propoxy}-2-methylbenzothiazole]",< 100,< 100
